In the NIST ThermoML archive (doi:10.1021/je100407f) one finds interfacial tension data, which are given here for six compounds.

For the data set the following is noted: 101 kPa, Liquid mixture 1, Ring tensiometer.

“And” between values parts separate entries of the source, which are not always exact repeats. Equal values may be shown once. Numbers after ± are expanded uncertainties.

Take `CCCCn1cc[n+](C)c1.F[P-](F)(F)(F)(F)F` [1-butyl-3-methylimidazolium hexafluorophosphate] + CCCCCCC: the interfacial tension is, setting by setting: (283.15 K) 14.81 ± 0.32 mN/m; (293.15 K) 14.69 ± 0.32 mN/m; (303.15 K) 14.67 ± 0.32 mN/m; (313.15 K) 14.59 ± 0.32 mN/m; (323.15 K) 14.5 ± 0.32 mN/m; (333.15 K) 14.41 ± 0.32 mN/m.
As for `CCCCCCn1cc[n+](C)c1.F[P-](F)(F)(F)(F)F` [1-hexyl-3-methylimidazolium hexafluorophosphate] + CCCCCC, the interfacial tension stood at 9.01 ± 0.26 mN/m (283.15 K); 8.9 ± 0.26 mN/m (293.15 K); 8.83 ± 0.26 mN/m (303.15 K); 8.84 ± 0.26 mN/m (313.15 K); 8.73 ± 0.26 mN/m (323.15 K); 8.68 ± 0.26 mN/m (333.15 K).
For the compound `CCCCCCn1cc[n+](C)c1.F[P-](F)(F)(F)(F)F` [1-hexyl-3-methylimidazolium hexafluorophosphate] + CCCCCCC, the interfacial tension (283.15 K) was determined as 8.86 ± 0.26 mN/m; the interfacial tension (293.15 K) turned out to be 8.74 ± 0.26 mN/m; the interfacial tension (303.15 K) is 8.73 ± 0.26 mN/m; the interfacial tension (313.15 K) is recorded as 8.69 ± 0.26 mN/m; the interfacial tension (323.15 K) is on record as 8.54 ± 0.26 mN/m; the interfacial tension (333.15 K) was found to be 8.47 ± 0.26 mN/m.
Consider `CCCCCn1cc[n+](C)c1.F[P-](F)(F)(F)(F)F` [1-methyl-3-pentylimidazolium hexafluorophosphate] + CCCCCC, for which the interfacial tension was 12.37 ± 0.3 mN/m (283.15 K); 11.92 ± 0.29 mN/m (293.15 K); 12 ± 0.29 mN/m and 11.93 ± 0.29 mN/m (313.15 K); 11.78 ± 0.29 mN/m (323.15 K); 11.67 ± 0.29 mN/m (333.15 K).
Turning to `CCCCCn1cc[n+](C)c1.F[P-](F)(F)(F)(F)F` [1-methyl-3-pentylimidazolium hexafluorophosphate] + CCCCCCC, the interfacial tension turned out to be 12.23 ± 0.3 mN/m (283.15 K); 12.12 ± 0.29 mN/m (293.15 K); 12.02 ± 0.29 mN/m (303.15 K); 11.9 ± 0.29 mN/m (313.15 K); 11.63 ± 0.29 mN/m (323.15 K); 11.53 ± 0.29 mN/m (333.15 K).
Turning to `CCCCCCCC[n+]1ccn(C)c1.F[P-](F)(F)(F)(F)F` [1-octyl-3-methylimidazolium hexafluorophosphate] + CCCCCC, the interfacial tension is 4.89 ± 0.23 mN/m (283.15 K); 4.77 ± 0.23 mN/m (293.15 K); 4.66 ± 0.23 mN/m (303.15 K); 4.52 ± 0.22 mN/m (313.15 K); 4.45 ± 0.22 mN/m (323.15 K); 4.46 ± 0.22 mN/m (333.15 K).
